Laboratory results reported in BigSolDB 2.1.

CC[C@H](CC[C@@H](C)[C@H]1CC[C@H]2[C@@H]3CC=C4C[C@@H](O)CC[C@]4(C)[C@H]3CC[C@]12C)C(C)C
solubility (mole fraction)
Details	in acetone	in ethanol	in ethyl acetate	in methanol	in n-hexane
278.15 K	0.00274	0.0013	0.00447	0.000136	0.000862
283.15 K	0.00322	0.00158	0.0053	0.000167	0.00103
288.15 K	0.00379	0.0019	0.00627	0.000205	0.00123
293.15 K	0.00446	0.00229	0.00738	0.000248	0.00147
298.15 K	0.00525	0.00274	0.00872	0.000299	0.00173
303.15 K	0.00616	0.00328	0.0103	0.000357	0.00205
308.15 K	0.00724	0.00389	0.012	0.000427	0.0024
313.15 K	0.00852	0.0046	0.014	0.000509	0.0028
318.15 K	0.01	0.0054	0.0163	0.000606	0.00326
323.15 K	0.0118	0.00632	0.019	0.00072	0.00377
328.15 K	0.0139	0.00738	–	0.000855	0.00436
333.15 K	–	0.00856	–	–	0.005
